Assays:
Assay in all cases: microbe, parasite or virus in culture
Type in all cases: cell-based
Botrytis cinerea = conditions: read-out: IC50 B. cinerea
Phytophthora infestans = conditions: for IC50 P. infestans: fungal growth on 1.5% agar minimal media, 20° C., 3-5 days, 3-fold serial dilutions, C.V. class in parentheses; for IC50: Phytophthora infestans, read-out: IC50 P. infestans
Stagonospora nodorum = conditions: for IC50: Parastagonospora nodorum, read-out: IC50 S. nodorum
Septoria tritici = conditions: for IC50: Zymoseptoria tritici, read-out: IC50 S. tritici

| SMILES | IC50 (Botrytis cinerea) [µM] | IC50 P. infestans (Phytophthora infestans) | IC50 S. nodorum (Stagonospora nodorum) | IC50 S. tritici (Septoria tritici) | IC50 (Stagonospora nodorum) [µM] | IC50 (Septoria tritici) [µM] | IC50 (Phytophthora infestans) [µM] |
| --- | --- | --- | --- | --- | --- | --- | --- |
| C=C(C(=O)Oc1ccc(Cl)cc1)C(O)c1cccnc1 (stereo not drawn) [Compound 19, 4-Chlorophenyl β-hydroxy-α-methylene-3-pyridinepropanoate] | > 25 | A (c) | C (c) | A (c) | – | – | – |
| C=C(C(=O)OCc1ccc(Oc2ccccc2)cc1)C(O)c1nccs1 (stereo not drawn) [Compound 30, 4-Phenoxyphenylmethyl β-hydroxy-α-methylene-2-thiazolepropanoate] | 16 to 25 | A (b) | – | – | > 25 | 6 to 15 | – |
| C=C(C(=O)OCc1ccc(Oc2ccccc2)cc1)C(O)c1cccnc1 (stereo not drawn) [Compound 28, 4-Phenoxyphenylmethyl β-hydroxy-α-methylene-3-pyridinepropanoate] | – | B (a) | – | – | 6 to 15 | < 5 | – |
| C=C(C(=O)OCc1ccc(Oc2cccc(Cl)c2)cc1)C(O)c1cccnc1 (stereo not drawn) [Compound 24, 4-(3-Chlorophenoxy)phenylmethyl β-hydroxy-α-methylene-3-pyridinepropanoate] | > 25 | – | C (c) | A (d) | – | – | 16 to 25 |
| O=C(OCc1cccc(C(F)(F)F)c1)/C(=C\c1ccccc1)C(O)c1cccnc1 (stereo not drawn) [Compound 5, 3-(Trifluoromethyl)phenylmethyl Z-α-(α-hydroxy-3-pyridylmethyl)-3-phenylpropenoate] | > 25 | – | A (b) | A (b) | – | – | > 25 |
| C=C(C(=O)OCc1ccc(Cl)c(Cl)c1)C(O)c1nccs1 (stereo not drawn) [Compound 4, 3,4-Dichlorophenylmethyl β-hydroxy-α-methylene-2-thiazolepropanoate] | < 5 | B (d) | C (b) | B (b) | – | – | – |

Source: patent US7541472B2 (priority 2004, dated 2009)
